In patent US20260191838A1, “COMBINATIONS COMPRISING A MENIN-MLL INHIBITOR AND A BCL-2 INHIBITOR” (JANSSEN PHARMACEUTICA NV, priority 2022, published 2026):

Experiments:
OCI-AML3 cells [1] = assay: In vitro proliferation (Cell Titer Glo), Compound 51 with decitabine and venetoclax, OCI-AML3; assay type: cell-based, human; set-up: Effect size (BIGL, HSA null model): scale not given here
Description: 3a) In Vitro Proliferation—Menin-MLL Inhibitor in Combination with a DNA Hypomethylating Agent (Decitabine) and a BCL2 Inhibitor (Venetoclax)
The effect of Compound 51 in combination with decitabine and venetoclax was determined in proliferation assays.
AML cell lines MOLM-13, OCI-AML3 and MV4-11 were purchased from DSMZ. MOLM-13 were grown in RPMI medium supplemented with 10% Fetal Bovine Serum (FBS) and 1% penicillin/streptomycin. MV4-11 cells were grown in IMDM medium supplemented with 10% FBS and 1% penicillin/streptomycin. OCI-AML3 cells were cultured in 80-90% alpha-MEM (without ribo- and deoxyribonucleosides)+10-20% FBS. All cell lines were cultured at 37° C. in 5% CO2 atmosphere.
AML cell lines (10×10^3 cells/well) were seeded in 96-well plates and grown for 6 days in serum (10%)-containing medium in the presence or absence of inhibitors at the indicated concentrations. Proliferation was analyzed by means of a Cell Titer Glo assay using the CellTiter 96 Aqueous One Solution Cell Proliferation Assay (Promega, Madison, WI, USA), according to the manufacturer's instructions. Data are mean with standard deviation from two to four independent experiments in technical triplicates.
R-based Biochemically Intuitive Generalized Loewe (BIGL) model implemented with a highest single agent (HSA) null model. Specifically, the BIGL methodology was applied to calculate drug-drug interactions (Van der Borght, K., Tourny, A., Bagdziunas, R. et al. BIGL: Biochemically Intuitive Generalized Loewe null model for prediction of the expected combined effect compatible with partial agonism and antagonism. Sci Rep 7, 17935 (2017); Thas, O., Tourny, A., Verbist, B., Hawinkel, S., Nazarov, M., Mutambanengwe, K., & Bijnens, L. Statistical detection of synergy: new methods and a comparative study. Pharmaceutical Statistics (2021)).
Synergy matrix results of the BIGL analysis of the cell line data with HSA as mean model calculated on the basis of the cellular metabolic activity using Cell Titer-Glo assay. Bootstrap confidence intervals are indicated. Effect sizes and their confidence intervals are shown. […] No significant average effect if zero is included in the interval.

OCI-AML3 cells [2] = assay: Proliferation (spheroid) assay, OCI-AML3; assay type: cell-based; conditions: Homo sapiens, OCI-AML-3, 192 h; 8 days; read-out: spheroid assay_OCI-AML3 IC50
Description: The anti-proliferative effect of menin/MLL protein/protein interaction inhibitor test compounds was assessed in human leukemia cell lines. The cell line MOLM14 harbors a MLL translocation and expresses the MLL fusion protein MLL-AF9, respectively, as well as the wildtype protein from the second allele. OCI-AML3 cells that carry the NPM1c gene mutation were also tested. […] KO-52 was used as a control cell line containing two MLL (KMT2A) wildtype alleles in order to exclude compounds that display general cytotoxic effects.
MOLM14 cells were cultured in RPMI-1640 (Sigma Aldrich) supplemented with 10% heat-inactivated fetal bovine serum (HyClone), 2 mM L-glutamine (Sigma Aldrich) and 50 μg/ml gentamycin (Gibco). KO-52 and OCI-AML3 cell lines were propagated in alpha-MEM (Sigma Aldrich) supplemented with 20% heat-inactivated fetal bovine serum (HyClone), 2 mM L-glutamine (Sigma Aldrich) and 50 μg/ml gentamycin (Gibco).
In order to assess the anti-proliferative effects, 200 MOLM14 cells, 200° C. […] Spheroid like growth was measured in real-time by live-cell imaging (IncuCyteZOOM, Essenbio, 4× objective) acquiring images at day 8. Confluence (%) as a measure of spheroid size was determined using an integrated analysis tool.
In order to determine the effect of the test compounds over time, the confluence in each well as a measure of spheroid size, was calculated. […]

CC(=O)N1CCC(CN2CC[C@@H](Cc3cn(-c4ccc(F)cc4C(=O)N(C)C(C)C)c4cncc(C)c34)C2)CC1 [Compound 51]
Effect size (BIGL, HSA null model) (OCI-AML3 cells [1]; Compound 51 0.001 μM, Decitabine 0.0015 μM, Venetoclax 0.0001 μM): −0.03
Effect size (BIGL, HSA null model) (OCI-AML3 cells [1]; Compound 51 0.001 μM, Decitabine 0.015 μM, Venetoclax 0.001 μM): −0.1
Effect size (BIGL, HSA null model) (OCI-AML3 cells [1]; Compound 51 0.001 μM, Decitabine 0.15 μM, Venetoclax 0.002 μM): −0.05
Effect size (BIGL, HSA null model) (OCI-AML3 cells [1]; Compound 51 0.001 μM, Decitabine 1.5 μM, Venetoclax 0.02 μM): 0
Effect size (BIGL, HSA null model) (OCI-AML3 cells [1]; Compound 51 0.001 μM, Decitabine 3 μM, Venetoclax 0.2 μM): 0
Effect size (BIGL, HSA null model) (OCI-AML3 cells [1]; Compound 51 0.01 μM, Decitabine 0.0015 μM, Venetoclax 0.0001 μM): −0.01
Effect size (BIGL, HSA null model) (OCI-AML3 cells [1]; Compound 51 0.01 μM, Decitabine 0.015 μM, Venetoclax 0.001 μM): −0.31
Effect size (BIGL, HSA null model) (OCI-AML3 cells [1]; Compound 51 0.01 μM, Decitabine 0.15 μM, Venetoclax 0.002 μM): −0.06
Effect size (BIGL, HSA null model) (OCI-AML3 cells [1]; Compound 51 0.01 μM, Decitabine 1.5 μM, Venetoclax 0.02 μM): −0.01
Effect size (BIGL, HSA null model) (OCI-AML3 cells [1]; Compound 51 0.01 μM, Decitabine 3 μM, Venetoclax 0.2 μM): 0
Effect size (BIGL, HSA null model) (OCI-AML3 cells [1]; Compound 51 0.05 μM, Decitabine 0.0015 μM, Venetoclax 0.0001 μM): 0.02
Effect size (BIGL, HSA null model) (OCI-AML3 cells [1]; Compound 51 0.05 μM, Decitabine 0.015 μM, Venetoclax 0.001 μM): 0.01
Effect size (BIGL, HSA null model) (OCI-AML3 cells [1]; Compound 51 0.05 μM, Decitabine 0.15 μM, Venetoclax 0.002 μM): −0.09
Effect size (BIGL, HSA null model) (OCI-AML3 cells [1]; Compound 51 0.05 μM, Decitabine 1.5 μM, Venetoclax 0.02 μM): −0.01
Effect size (BIGL, HSA null model) (OCI-AML3 cells [1]; Compound 51 0.05 μM, Decitabine 3 μM, Venetoclax 0.2 μM): 0
Effect size (BIGL, HSA null model) (OCI-AML3 cells [1]; Compound 51 0.1 μM, Decitabine 0.0015 μM, Venetoclax 0.0001 μM): 0.03
Effect size (BIGL, HSA null model) (OCI-AML3 cells [1]; Compound 51 0.1 μM, Decitabine 0.015 μM, Venetoclax 0.001 μM): 0.09
Effect size (BIGL, HSA null model) (OCI-AML3 cells [1]; Compound 51 0.1 μM, Decitabine 0.15 μM, Venetoclax 0.002 μM): −0.06
Effect size (BIGL, HSA null model) (OCI-AML3 cells [1]; Compound 51 0.1 μM, Decitabine 1.5 μM, Venetoclax 0.02 μM): −0.01
Effect size (BIGL, HSA null model) (OCI-AML3 cells [1]; Compound 51 0.1 μM, Decitabine 3 μM, Venetoclax 0.2 μM): 0
Effect size (BIGL, HSA null model) (OCI-AML3 cells [1]; Compound 51 0.5 μM, Decitabine 0.0015 μM, Venetoclax 0.0001 μM): 0.03
Effect size (BIGL, HSA null model) (OCI-AML3 cells [1]; Compound 51 0.5 μM, Decitabine 0.015 μM, Venetoclax 0.001 μM): 0.12
Effect size (BIGL, HSA null model) (OCI-AML3 cells [1]; Compound 51 0.5 μM, Decitabine 0.15 μM, Venetoclax 0.002 μM): 0.01
Effect size (BIGL, HSA null model) (OCI-AML3 cells [1]; Compound 51 0.5 μM, Decitabine 1.5 μM, Venetoclax 0.02 μM): −0.01
Effect size (BIGL, HSA null model) (OCI-AML3 cells [1]; Compound 51 0.5 μM, Decitabine 3 μM, Venetoclax 0.2 μM): 0
Effect size (BIGL, HSA null model) (OCI-AML3 cells [1]; Compound 51 1 μM, Decitabine 0.0015 μM, Venetoclax 0.0001 μM): 0.02
Effect size (BIGL, HSA null model) (OCI-AML3 cells [1]; Compound 51 1 μM, Decitabine 0.015 μM, Venetoclax 0.001 μM): 0.11
Effect size (BIGL, HSA null model) (OCI-AML3 cells [1]; Compound 51 1 μM, Decitabine 0.15 μM, Venetoclax 0.002 μM): 0
Effect size (BIGL, HSA null model) (OCI-AML3 cells [1]; Compound 51 1 μM, Decitabine 1.5 μM, Venetoclax 0.02 μM): 0
Effect size (BIGL, HSA null model) (OCI-AML3 cells [1]; Compound 51 1 μM, Decitabine 3 μM, Venetoclax 0.2 μM): 0.03
combination effect on proliferation (in words) (OCI-AML3 cells [1]; Compound 51 with Decitabine in the presence of Venetoclax, OCI-AML3 (NPM1c), 6-day CellTiter-Glo): not antagonistically cytotoxic
IC50 (OCI-AML3 cells [2]): 24 nM
